Assay results: patent US8309583B2, “Desferrioxamine conjugates, derivatives and analogues” (priority 2007, dated 2012)
Where a name gives a salt, the structure may show the parent alone.

Columns and labels:
[1] = test system: SK-N-MC neuroepithelioma cells; assay: 59Fe efflux from 59Fe-prelabeled SK-N-MC cells; format: cell-based; conditions: compound 50 μM, 3 h, 37° C.; SK-N-MC cells prelabeled 3 h with 59Fe-loaded transferrin (0.75 μM)
SK-N-MC cells = assay: 59Fe uptake into SK-N-MC cells from 59Fe-loaded transferrin; format: cell-based; conditions: comparison with DFOB
[2] = oral; cited from earlier work
[3] = RP-HPLC relative hydrophobicity / logP correlation; conditions: C18 column, H2O/ACN 0.1% TFA gradient, free or Fe(III)-loaded ligand
[4] = standards used in RP-HPLC logP correlation; cited from earlier work

CC(=O)N(O)CCCCCNC(=O)CCC(=O)N(O)CCCCCNC(=O)CCC(=O)N(O)CCCCCNC(=O)COc1ccc(C)cc1 [4-methylphenoxyacetate-DFOB, 4-methylphenoxyacetate-desferrioxamine B]
Fe efflux (59Fe released from prelabeled cells) [1]: 31.6%
competition with 59Fe-loaded transferrin for 59Fe, preventing accumulation of Fe within the cell (SK-N-MC cells): more efficient

CC(=O)N(O)CCCCCNC(=O)CCC(=O)N(O)CCCCCNC(=O)CCC(=O)N(O)CCCCCNC(=O)CCCC[C@@H]1SC[C@@H]2NC(=O)N[C@@H]21 [Biotin-DFOB, biotin-desferrioxamine B]
Fe efflux (59Fe released from prelabeled cells) [1]: 6.6%

CC(=O)N(O)CCCCCNC(=O)CCC(=O)N(O)CCCCCNC(=O)CCC(=O)N(O)CCCCCN [DFOB, desferrioxamine B, reference compound]
Fe efflux (59Fe released from prelabeled cells) [1]: 10.8%

CC(=O)N(O)CCCCCNC(=O)CCC(=O)N(O)CCCCCNC(=O)CCC(=O)N(O)CCCCCN [Desferal, mesylate salt of desferrioxamine B]
fraction of an orally administered dose absorbed [2]: 15%

CC(=O)N(O)CCCCCNC(=O)CCC(=O)N(O)CCCCCNC(=O)CCC(=O)N(O)CCCCCNC(=O)C12CC3CC(CC(C3)C1)C2 [adamantane-DFOB, adamantane-desferrioxamine B]
Fe efflux (59Fe released from prelabeled cells) [1]: 28%
competition with 59Fe-loaded transferrin for 59Fe, preventing accumulation of Fe within the cell (SK-N-MC cells): more efficient
relative hydrophobicity / water solubility from RP-HPLC retention [3]: least water soluble
relative hydrophobicity / water solubility from RP-HPLC retention ([3]; listed as adamantane-desferrioxamine B): significantly more hydrophobic

CC(=O)N(O)CCCCCNC(=O)CCC(=O)N(O)CCCCCNC(=O)CCC(=O)N(O)CCCCCNC(=O)c1ccc2c(c1)OCCOCCOCCOCCO2 [benzo-15-crown-5-4-carboxylate-DFOB, benzo-15-crown-5-4-carboxylate-desferrioxamine B]
Fe efflux (59Fe released from prelabeled cells) [1]: 9.6%

Oc1cccc2ccccc12 [α-naphthol]
logP [4]: 2.7
